Data on one compound can be found in patent US10295551B2, “Development and use of fluorescent probes of unbound bilirubin” (Alan Marc Kleinfeld, priority 2011, dated 2019).

Read-outs that look alike come from different tables or passages of the source.

Experiment [1] concerns the target T1, rI-FABP (SEQ ID NO: 3) variant L24P19C7-K27C, 14R 18L 27C 38V 60R 73F 106C 115R 117D (Rattus norvegicus, UniProt P02693, A74F/K28C/L39V/L73A/M19L/Q116R/R107C/V61R/Y118D/Y15R).
T1 construct: made in house
In words: bilirubin binding to L24P19C7-K27C probe. As to conditions: Table 5, acrylodan. On the procedure:
(§1) Also described are analytical/mathematical methods for calibrating and using the bilirubin probes. Bilirubin probes are calibrated to determine their binding affinity for bilirubin (dissociation constant Kd) under conditions, such as temperature, pH and solution composition, that correspond to samples in which it is desired to know the unbound bilirubin concentration. Binding isotherms are performed in aqueous buffer by measuring the change in fluorescence of the bilirubin probes in response to increasing bilirubin concentrations (“titration data”). The set of fluorescence responses at each bilirubin concentration are fitted with an appropriate equation (“calibration equation”) that correctly describes the fluorescence response as a function of the bilirubin concentration, the probe concentration, specific spectroscopic characteristics, and the Kd.

In experiment [2] the target is T2, rI-FABP (SEQ ID NO: 3) variant BL22P1 B11 - 74C, MGI - KR14 - 14R 18L 27A 38V 60R 73F 74C 106L 115R 117D (Rattus norvegicus, UniProt P02693, A74F/D75C/K101R/K126R/K17R/K21R/K28A/K30R/K38R/K47R/K51R/K89R/K8R/K93R/K95R/L39V/L73A/M19L/Q116R/R107L/V61R/Y118D/Y15R).
T2 construct: 6xHis (C); made in house
The class given is binding. As to conditions: Table 5, Alexa Fluor 680 C2-maleimide. On the procedure:
as §1

Experiment [3] concerns the target T3, rI-FABP (SEQ ID NO: 3) variant BL22P1 B11 - 33C, MGI - KR14 - 14R 18L 27A 33C 38V 60R 73F 106L 115R 117D (Rattus norvegicus, UniProt P02693, A74F/H34C/K101R/K126R/K17R/K21R/K28A/K30R/K38R/K47R/K51R/K89R/K8R/K93R/K95R/L39V/L73A/M19L/Q116R/R107L/V61R/Y118D/Y15R).
T3 construct: 6xHis (C); made in house
It is filed as binding. On the procedure:
as §1

The target of experiment [4] is T4, rI-FABP (SEQ ID NO: 3) variant BL22P1 B11 - 27C, MGI - KR14 - Y14R M18L K27C L38V V60R A73F R106L Q115R Y117D (Rattus norvegicus, UniProt P02693, A74F/K101R/K126R/K17R/K21R/K28C/K30R/K38R/K47R/K51R/K89R/K8R/K93R/K95R/L39V/L73A/M19L/Q116R/R107L/V61R/Y118D/Y15R).
T4 construct: 6xHis (C); made in house
It is filed as binding. The protocol:
as §1

The target in experiment [5] is T5, rI-FABP (SEQ ID NO: 3) variant BL22P1 B11 - 54C, MGI - KR14 - 14R 18L 27A 38V 54C 60R 73F 106L 115R 117D (Rattus norvegicus, UniProt P02693, A74F/K101R/K126R/K17R/K21R/K28A/K30R/K38R/K47R/K51R/K89R/K8R/K93R/K95R/L39V/L73A/M19L/N55C/Q116R/R107L/V61R/Y118D/Y15R).
T5 construct: 6xHis (C); made in house
The class given is binding. As to conditions: Table 5, Alexa Fluor 680 C2-maleimide. The protocol: as §1

Where [6] appears, read: Table 5, Alexa Fluor 680 C2-maleimide.
[7] abbreviates: Table 5, Alexa Fluor 750 C5-maleimide.

T4 sequence (P02693 with tags, fused parts or gaps with the stated changes): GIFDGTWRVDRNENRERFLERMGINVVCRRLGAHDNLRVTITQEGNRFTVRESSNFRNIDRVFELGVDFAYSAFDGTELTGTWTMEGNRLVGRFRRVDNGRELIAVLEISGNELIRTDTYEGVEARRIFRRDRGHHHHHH
T3 sequence (P02693 with tags, fused parts or gaps with the stated changes): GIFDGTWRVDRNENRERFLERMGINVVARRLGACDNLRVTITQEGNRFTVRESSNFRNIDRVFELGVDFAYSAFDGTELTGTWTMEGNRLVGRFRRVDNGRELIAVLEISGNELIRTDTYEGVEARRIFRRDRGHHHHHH
T2 sequence (P02693 with tags, fused parts or gaps with the stated changes): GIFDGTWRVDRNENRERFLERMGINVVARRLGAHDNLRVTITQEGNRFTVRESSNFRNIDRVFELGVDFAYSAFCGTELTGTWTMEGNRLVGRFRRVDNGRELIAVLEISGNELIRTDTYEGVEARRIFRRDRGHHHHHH
T5 sequence (P02693 with tags, fused parts or gaps with the stated changes): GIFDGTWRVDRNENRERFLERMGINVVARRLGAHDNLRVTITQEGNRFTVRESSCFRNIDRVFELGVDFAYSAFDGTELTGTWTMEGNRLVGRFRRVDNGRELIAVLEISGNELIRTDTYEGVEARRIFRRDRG
T1 sequence (P02693 with tags, fused parts or gaps Y15R/M19L/K28C/L39V/V61R/L73A/A74F/R107C/Q116R/Y118D): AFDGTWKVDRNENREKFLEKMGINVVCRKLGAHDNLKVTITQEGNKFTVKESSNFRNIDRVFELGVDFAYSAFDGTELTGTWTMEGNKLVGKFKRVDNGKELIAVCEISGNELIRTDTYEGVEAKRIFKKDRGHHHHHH

The Kd is the free concentration of one partner at which half of the binding sites on the other are occupied at equilibrium, for simple one-to-one binding. As to `C=CC1=C(C)/C(=C/c2[nH]c(Cc3[nH]c(/C=C4\NC(=O)C(C)=C4C=C)c(C)c3CCC(=O)O)c(CCC(=O)O)c2C)NC1=O` [bilirubin], the dissociation constant (Kd) in experiment [1] came to 242 nM; in experiment [2], 160 nM; in experiment [3] (setting [6]) it was 250 nM; in experiment [3] (setting [7]) it was 120 nM; in experiment [4] (setting [6]) it was 70 nM; in experiment [4] (setting [7]), 154 nM. Also, the Kd in experiment [5] was determined as 160 nM.
